Test results: US20040102367A1, “Gene expression system based on chimeric receptors” (priority 2002, published 2004)

What was measured:
EcR+Usp = target: T1, EcR+Usp (Drosophila melanogaster, UniProt P34021); details: cited from earlier work
T1 sequence (P34021 1-878): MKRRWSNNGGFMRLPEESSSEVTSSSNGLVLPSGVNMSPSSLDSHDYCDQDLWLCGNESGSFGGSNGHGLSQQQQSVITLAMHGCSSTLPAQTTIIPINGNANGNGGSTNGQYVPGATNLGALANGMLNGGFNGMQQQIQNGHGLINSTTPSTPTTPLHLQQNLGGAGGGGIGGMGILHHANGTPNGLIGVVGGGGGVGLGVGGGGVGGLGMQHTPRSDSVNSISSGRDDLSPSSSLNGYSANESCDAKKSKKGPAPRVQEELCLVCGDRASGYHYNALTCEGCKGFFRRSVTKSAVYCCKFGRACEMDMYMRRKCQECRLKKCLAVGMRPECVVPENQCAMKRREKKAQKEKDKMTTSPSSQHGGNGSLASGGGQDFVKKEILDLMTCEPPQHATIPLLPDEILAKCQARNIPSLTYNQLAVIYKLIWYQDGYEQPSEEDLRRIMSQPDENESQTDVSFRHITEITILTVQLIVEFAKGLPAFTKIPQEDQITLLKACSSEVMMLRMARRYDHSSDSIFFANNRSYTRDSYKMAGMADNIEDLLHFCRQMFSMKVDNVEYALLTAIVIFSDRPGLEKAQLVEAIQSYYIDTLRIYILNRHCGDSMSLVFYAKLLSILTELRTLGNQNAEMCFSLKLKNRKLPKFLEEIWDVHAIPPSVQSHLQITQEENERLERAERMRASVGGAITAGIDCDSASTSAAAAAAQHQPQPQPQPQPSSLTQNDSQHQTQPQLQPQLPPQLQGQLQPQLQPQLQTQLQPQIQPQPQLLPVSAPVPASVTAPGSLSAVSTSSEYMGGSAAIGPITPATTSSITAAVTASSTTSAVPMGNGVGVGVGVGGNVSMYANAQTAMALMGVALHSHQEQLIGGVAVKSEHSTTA
T1 sequence (P20153 1-508 partner): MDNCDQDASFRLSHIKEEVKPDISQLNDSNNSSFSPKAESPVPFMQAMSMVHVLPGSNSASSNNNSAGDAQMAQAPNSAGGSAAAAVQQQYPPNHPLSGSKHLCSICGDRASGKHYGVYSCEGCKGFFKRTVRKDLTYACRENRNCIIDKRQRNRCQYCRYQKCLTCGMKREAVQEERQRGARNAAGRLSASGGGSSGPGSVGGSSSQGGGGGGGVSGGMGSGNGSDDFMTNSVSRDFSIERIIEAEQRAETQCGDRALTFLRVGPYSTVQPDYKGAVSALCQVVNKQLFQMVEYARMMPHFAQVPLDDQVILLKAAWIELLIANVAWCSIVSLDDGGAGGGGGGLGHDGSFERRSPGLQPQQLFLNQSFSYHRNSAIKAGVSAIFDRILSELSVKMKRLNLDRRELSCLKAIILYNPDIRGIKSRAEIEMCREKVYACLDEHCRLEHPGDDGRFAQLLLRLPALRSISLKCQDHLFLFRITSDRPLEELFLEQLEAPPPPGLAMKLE

GRU1.2D-3 = target: T2, GRU1.2D-3 (Bombyx mori, UniProt P49881); experiment: transient transfection luciferase expression assay (GalO-luc reporter) with VHB and GRU1.2D-3; format: cell-based; details: GRU1.2D-3 point mutant (Cys329 to Gly); 1 micromolar ligand, 48 hrs
T2 construct: BEcR hinge domain and HBD (corresponding to amino acids 272 to 606); expressed in transfected cells
T2 sequence (P49881 272-606): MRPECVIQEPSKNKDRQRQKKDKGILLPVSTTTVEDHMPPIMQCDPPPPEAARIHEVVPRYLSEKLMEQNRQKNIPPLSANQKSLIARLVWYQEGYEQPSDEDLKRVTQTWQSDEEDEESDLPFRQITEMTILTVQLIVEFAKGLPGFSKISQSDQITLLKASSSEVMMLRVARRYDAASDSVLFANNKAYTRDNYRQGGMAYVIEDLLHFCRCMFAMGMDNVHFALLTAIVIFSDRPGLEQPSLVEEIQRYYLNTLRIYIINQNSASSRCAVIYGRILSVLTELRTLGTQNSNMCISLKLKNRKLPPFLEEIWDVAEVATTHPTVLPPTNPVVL
Experimental: (§1) All construction and cloning was performed by standard methods and as described by Suhr et al., in Proc Natl Acad Sci USA 95(14):7999-8004 (1998) for similar chimeric proteins. For the VHB protein combining the transactivation domain of HSV VP16 protein with the hinge and hormone binding/heterodimerization domain (HBD) of Bombyx mori EcR (BEcR), the 77 amino acid (231 base pair) VP16 domain was amplified by PCR with an in-frame Mlul site at the 3′ end that was ligated with an identical site introduced into the 5′ end of the BEcR hinge domain and HBD (corresponding to amino acids 272 to 606). The final construct, termed VHB, functionally couples the VP16 domain with the BEcR high-affinity hormone responsive domains (see FIG. 3). This DNA was introduced into a number of expression constructs for expression in transduced cells.
(§2) The DNA-binding dimer partner protein fused the 95 amino acid Gal4 DNA binding domain via a BspE I site at the 3′ end to a region of either the RXR or Usp protein with high affinity ligand dependent interaction with BEcR. These variants used amino acids 200-462 of the human RXR alpha protein or amino acids 169-507 of the Drosophila Usp protein (see FIG. 3). These proteins are termed GR (for the RXR variant) or GU (for the Usp variant). […]

GRU variant 1.2 = target: T3, GRU variant 1.2 (Bombyx mori, UniProt P49881); experiment: transient transfection luciferase expression assay (GalO-luc reporter) with RXR-USP chimeric protein GRU variant 1.2; format: cell-based; details: 1 micromolar ligand, 48 hrs
T3 construct: BEcR hinge domain and HBD (corresponding to amino acids 272 to 606); expressed in transfected cells
T3 sequence (P49881 272-606): T2 sequence (P49881 272-606)
Experimental: as §1, §2

EcR+RXR = target: T4, EcR+RXR (Drosophila melanogaster, UniProt P34021); details: compared with 20-hydroxyecdysone; literature; cited from earlier work
T4 sequence (P34021 1-878): T1 sequence (P34021 1-878)
T4 sequence (P19793 1-462 partner): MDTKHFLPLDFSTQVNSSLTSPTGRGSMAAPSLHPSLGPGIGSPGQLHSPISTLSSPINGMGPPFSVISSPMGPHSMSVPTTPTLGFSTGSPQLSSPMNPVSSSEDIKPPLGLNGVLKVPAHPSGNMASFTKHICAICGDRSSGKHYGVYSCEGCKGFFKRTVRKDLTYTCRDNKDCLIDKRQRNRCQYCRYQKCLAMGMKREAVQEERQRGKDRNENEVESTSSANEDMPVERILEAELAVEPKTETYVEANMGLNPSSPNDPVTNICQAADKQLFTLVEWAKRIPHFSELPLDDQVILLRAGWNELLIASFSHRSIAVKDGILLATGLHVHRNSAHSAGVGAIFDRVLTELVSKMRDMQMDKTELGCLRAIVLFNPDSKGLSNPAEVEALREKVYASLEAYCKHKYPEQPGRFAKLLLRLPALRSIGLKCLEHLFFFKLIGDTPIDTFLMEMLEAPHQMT

[1] = tested on: mammals and other non-insect species; details: extensive testing in animal hosts; cited from earlier work

SMILES	stimulation of formation of EcR+Usp heterodimers (EcR+Usp; literature)	response to ligand (transactivation) (GRU1.2D-3)	response to ligand (transactivation) (GRU variant 1.2)	stimulation of formation of EcR+RXR heterodimers (EcR+RXR)	stimulation of EcR+Usp binding of EcREs over levels without ligand (EcR+Usp; literature (Christopherson, Thomas, Yao)) [fold]	toxicity to mammals and other non-insect species [1]
CC(C)(O)CC[C@@H](O)[C@](C)(O)[C@H]1CC[C@@]2(O)C3=CC(=O)[C@@H]4C[C@@H](O)[C@@H](O)C[C@]4(C)[C@H]3CC[C@]12C [20-OH ecdysone, 20-Hydroxy-ecdysone]	potently stimulated	high level response	good response			
CC(C)CC[C@@H](O)[C@](C)(O)[C@H]1CC[C@@]2(O)C3=CC(=O)[C@]4(O)C[C@@H](O)[C@@H](O)C[C@]4(C)[C@H]3[C@H](O)C[C@]12C [muristerone A]				more highly stimulated	3 to 7	
CCc1ccc(C(=O)NN(C(=O)c2cc(C)cc(C)c2)C(C)(C)C)cc1 [tebufenozide]		high level response	good response			very low toxicity
